Columns and labels:
[1] = test system: GABAA receptors; parameters: method as in Khom et al., 2007; settings: high concentrations; ref Khom et al., 2007; cited from earlier work
[2] = test system: β1‐containing channels; parameters: method as in Khom et al., 2007; settings: ref Khom et al., 2007; cited from earlier work
[3] = target: α1β3T262Sγ2S GABAA receptor (Rattus norvegicus, UniProt P62813+P63079, T287S); experiment: I GABA enhancement by VA, two-microelectrode voltage clamp in Xenopus oocytes; type: cell-based
Text: (§1) […]. […] Concentration‐response curves were generated, and the data were fitted by non‐linear regression analysis using ORIGIN software (OriginLab Corporation, Northampton, MA, USA). Data were fitted to the Hill equation: y=min+max−min*x^n/k^nH+x^nH k corresponds to the EC50 value; x‐values are logs of concentration, and n H is the Hill coefficient. Each data point represents the mean ± SEM from ≥3 oocytes and two oocyte batches.
(§2) Follicle membranes covering oocytes were enzymatically digested with 2 mg·mL^−1 collagenase (type 1A). Mutations β3T262A, β3T262S, β3N265S, β3T266A, β3R269A, β3M286A, β3M286W and β3F289S in the β3‐subunit and α1I227A, α1L231A, α1M235A, α1M235W and α1L268A in the α1 subunit were introduced by site‐directed mutagenesis using the QuikChange mutagenesis kit (Agilent Technologies, Vienna, Austria). The coding regions of plasmids were sequenced before experimental use. After cDNA linearization, capped cRNA transcripts were produced using the mMESSAGE mMACHINE® T7 transcription kit (Life Technologies). Capped transcripts were polyadenylated using yeast poly(A)polymerase, diluted in nuclease‐free water and stored before injection at −80°C.
(§3) One day after isolation, the oocytes were injected with about 10–50 nL of nuclease‐free water containing the different rat cRNAs (100–2000 ng·μL^−1 per subunit). For expression of wild‐type α1β3γ2S and mutant receptors, cRNAs were mixed in a ratio of 1:1:10 (Boileau et al., 2002). Electrophysiological experiments were performed using the two‐microelectrode voltage clamp technique at a holding potential of −70 mV making use of a TURBO TEC 01C amplifier (NPI Electronic, Tamm, Germany) and an Axon Digidata 1322A interface (Molecular Devices, Sunnyvale, CA, USA). Data acquisition was carried out using PCLAMP v.9.2 (Molecular Devices, Sunnyvale, CA). The bath solution contained 90 mM NaCl, 1 mM KCl, 1 mM MgCl2, 1 mM CaCl2 and 5 mM HEPES (adjusted to pH 7.4 using 1 M NaOH). Microelectrodes were filled with 2 M KCl and had resistances between 1 and 3 MΩ (Khom et al., 2006).
(§4) Drug or control solutions were applied by means of a TECAN Miniprep 60 permitting automation of the experiments. […] […]. Oocytes with maximal current amplitudes >5 μA were discarded to exclude voltage‐clamp errors (Khom et al., 2006).

[4] = target: α1β3M286Aγ2S GABAA receptor (Rattus norvegicus, UniProt P62813+P63079, M311A); experiment: as above; type: cell-based
Text: as §1, §2, §3, §4

[5] = target: α1β3F289Sγ2S GABAA receptor (Rattus norvegicus, UniProt P62813+P63079, F314S); experiment: as above; type: cell-based
Text: as §1, §2, §3, §4

[6] = target: α1M235Wβ3γ2S GABAA receptor (Rattus norvegicus, UniProt P62813+P63079, M262W); experiment: as above; type: cell-based
Text: as §1, §2, §3, §4

[7] = target: α1β3T266Aγ2S GABAA receptor (Rattus norvegicus, UniProt P62813+P63079, T291A); experiment: as above; type: cell-based
Text: as §1, §2, §3, §4

[8] = target: α1L231Aβ3γ2S GABAA receptor (Rattus norvegicus, UniProt P62813+P63079, L258A); experiment: as above; type: cell-based
Text: as §1, §2, §3, §4

[9] = target: α1M235Aβ3γ2S GABAA receptor (Rattus norvegicus, UniProt P62813+P63079, M262A); experiment: as above; type: cell-based
Text: as §1, §2, §3, §4

[10] = target: α1I227Aβ3γ2S GABAA receptor (Rattus norvegicus, UniProt P62813+P63079, I254A); experiment: as above; type: cell-based
Text: as §1, §2, §3, §4

[11] = target: α1L268Aβ3γ2S GABAA receptor (Rattus norvegicus, UniProt P62813+P63079, L295A); experiment: as above; type: cell-based
Text: as §1, §2, §3, §4

[12] = target: α1β3T262Aγ2S GABAA receptor (Rattus norvegicus, UniProt P62813+P63079, T287A); experiment: as above; type: cell-based
Text: as §1, §2, §3, §4

[13] = target: α1β3M286Wγ2S GABAA receptor (Rattus norvegicus, UniProt P62813+P63079, M311W); experiment: as above; type: cell-based
Text: as §1, §2, §3, §4

[14] = target: α1β3R269Aγ2S GABAA receptor (Rattus norvegicus, UniProt P62813+P63079, R294A); experiment: as above; type: cell-based
Text: as §1, §2, §3, §4

[15] = target: α1β3γ2S GABAA receptor (Rattus norvegicus, UniProt P62813+P63079); experiment: as above; type: cell-based
Text: as §1, §2, §3, §4

[16] = target: α1β3N265Sγ2S GABAA receptor (Rattus norvegicus, UniProt P62813+P63079, N290S); experiment: as above; type: cell-based
Text: as §1, §2, §3, §4

[17] = read-out: Emax of I GABA enhancement

α1L231Aβ3γ2S GABAA receptor, sequence (P62813 28-455 L258A): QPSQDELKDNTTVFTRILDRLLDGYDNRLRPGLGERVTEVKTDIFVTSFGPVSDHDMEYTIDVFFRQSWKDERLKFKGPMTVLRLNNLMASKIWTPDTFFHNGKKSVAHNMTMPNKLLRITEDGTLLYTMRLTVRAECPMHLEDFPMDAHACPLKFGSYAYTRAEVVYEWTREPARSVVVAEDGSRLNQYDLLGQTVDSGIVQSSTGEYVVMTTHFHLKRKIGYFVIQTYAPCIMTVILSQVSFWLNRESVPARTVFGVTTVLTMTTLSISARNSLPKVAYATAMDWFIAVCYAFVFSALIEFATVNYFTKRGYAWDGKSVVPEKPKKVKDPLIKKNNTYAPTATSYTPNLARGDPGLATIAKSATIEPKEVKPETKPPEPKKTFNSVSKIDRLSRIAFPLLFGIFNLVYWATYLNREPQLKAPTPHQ
α1L231Aβ3γ2S GABAA receptor, sequence (P63079 26-473): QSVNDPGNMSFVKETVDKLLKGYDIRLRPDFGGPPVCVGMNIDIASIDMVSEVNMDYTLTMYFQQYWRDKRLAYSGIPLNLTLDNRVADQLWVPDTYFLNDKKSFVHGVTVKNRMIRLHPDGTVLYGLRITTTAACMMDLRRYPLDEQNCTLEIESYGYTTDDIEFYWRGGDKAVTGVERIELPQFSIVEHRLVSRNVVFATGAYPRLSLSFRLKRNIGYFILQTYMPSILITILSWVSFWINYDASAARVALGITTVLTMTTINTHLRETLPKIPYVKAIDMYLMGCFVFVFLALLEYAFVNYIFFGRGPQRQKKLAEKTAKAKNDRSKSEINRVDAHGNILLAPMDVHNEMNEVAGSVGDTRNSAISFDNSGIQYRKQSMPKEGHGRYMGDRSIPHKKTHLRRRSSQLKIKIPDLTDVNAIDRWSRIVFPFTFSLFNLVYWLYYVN
α1L231Aβ3γ2S GABAA receptor, sequence (P18508 39-466 partner): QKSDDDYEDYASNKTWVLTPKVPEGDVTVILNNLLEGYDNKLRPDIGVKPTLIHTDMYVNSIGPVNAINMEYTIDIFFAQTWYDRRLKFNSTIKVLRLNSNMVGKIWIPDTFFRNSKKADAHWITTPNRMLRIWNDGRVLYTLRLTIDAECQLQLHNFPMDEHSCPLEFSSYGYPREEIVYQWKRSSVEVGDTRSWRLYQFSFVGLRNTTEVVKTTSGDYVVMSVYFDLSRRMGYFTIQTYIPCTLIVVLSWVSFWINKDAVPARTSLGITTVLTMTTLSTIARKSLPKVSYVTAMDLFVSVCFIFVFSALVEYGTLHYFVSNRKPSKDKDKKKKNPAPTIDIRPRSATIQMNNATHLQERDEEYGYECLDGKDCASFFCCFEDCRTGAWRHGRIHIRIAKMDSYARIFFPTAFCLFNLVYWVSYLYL
α1I227Aβ3γ2S GABAA receptor, sequence (P62813 28-455 I254A): as the sequence (P62813 28-455 L258A) above, with I227A, A231L counted along it
α1I227Aβ3γ2S GABAA receptor, sequence (P63079 26-473): as the sequence (P63079 26-473) above
α1I227Aβ3γ2S GABAA receptor, sequence (P18508 39-466 partner): as the sequence (P18508 39-466 partner) above
α1L268Aβ3γ2S GABAA receptor, sequence (P62813 28-455 L295A): as the sequence (P62813 28-455 L258A) above, with A231L, L268A counted along it
α1L268Aβ3γ2S GABAA receptor, sequence (P63079 26-473): as the sequence (P63079 26-473) above
α1L268Aβ3γ2S GABAA receptor, sequence (P18508 39-466 partner): as the sequence (P18508 39-466 partner) above

CC1=C2[C@H](/C=C(\C)C(=O)O)CC[C@@H](C)[C@H]2CC1 [VA, valerenic acid]
concentration at which VA directly activates GABAA receptors [1]: ≥ 30 µM | concentration at which VA inhibits GABAA receptors [1]: ≥ 100 µM | effects on β1‐containing channels [2]: negligible effects | EC50 [3]: 3.4 ± 0.7 µM | Emax [3, 17]: 578 ± 42% | n H (Hill coefficient, I GABA enhancement) ([3]; α1β3T262Sγ2S, GABA EC3–7, mean ± SEM): 0.85 ± 0.15 | EC50 [4]: 60.1 ± 18.5 µM | Emax [4, 17]: 283 ± 52% | n H (Hill coefficient, I GABA enhancement) ([4]; α1β3M286Aγ2S, GABA EC3–7, mean ± SEM): 1.47 ± 0.21 | EC50 [5]: 181 ± 21.6 µM | Emax [5, 17]: 222 ± 12% | rightward shift of VA's potency versus wild type ([5]; α1β3F289Sγ2S versus α1β3γ2S): ninefold | n H (Hill coefficient, I GABA enhancement) ([5]; α1β3F289Sγ2S, GABA EC3–7, mean ± SEM): 1.20 ± 0.07 | EC50 [6]: 24.3 ± 7.7 µM | Emax [6, 17]: 193 ± 16% | n H (Hill coefficient, I GABA enhancement) ([6]; α1M235Wβ3γ2S, GABA EC3–7, mean ± SEM): 1.37 ± 0.34 | EC50 [7]: 7.5 ± 1.5 µM | Emax [7, 17]: 666 ± 55% | n H (Hill coefficient, I GABA enhancement) ([7]; α1β3T266Aγ2S, GABA EC3–7, mean ± SEM): 1.26 ± 0.1 | EC50 [8]: 18.8 ± 4.4 µM | Emax [8, 17]: 703 ± 82% | n H (Hill coefficient, I GABA enhancement) ([8]; α1L231Aβ3γ2S, GABA EC3–7, mean ± SEM): 1.37 ± 0.18 | EC50 [9]: 21.1 ± 2.8 µM | Emax [9, 17]: 546 ± 28% | n H (Hill coefficient, I GABA enhancement) ([9]; α1M235Aβ3γ2S, GABA EC3–7, mean ± SEM): 1.19 ± 0.08 | EC50 [10]: 40.8 ± 8.4 µM | Emax [10, 17]: 776 ± 60% | n H (Hill coefficient, I GABA enhancement) ([10]; α1I227Aβ3γ2S, GABA EC3–7, mean ± SEM): 1.13 ± 0.08 | EC50 [11]: 19.9 ± 5.6 µM | Emax [11, 17]: 582 ± 80% | n H (Hill coefficient, I GABA enhancement) ([11]; α1L268Aβ3γ2S, GABA EC3–7, mean ± SEM): 1.06 ± 0.13 | EC50 [12]: 2.5 ± 0.8 µM | Emax [12, 17]: 573 ± 96% | n H (Hill coefficient, I GABA enhancement) ([12]; α1β3T262Aγ2S, GABA EC3–7, mean ± SEM): 1.00 ± 0.16 | Emax [13, 17]: 67 ± 35% | modulatory effects on I GABA (in words) ([13]; α1β3M286Wγ2S, GABA EC3–7): did not display any significant modulatory effects | EC50 [14]: 84.1 ± 14.7 µM | Emax [14, 17]: 259 ± 22% | n H (Hill coefficient, I GABA enhancement) ([14]; α1β3R269Aγ2S, GABA EC3–7, mean ± SEM): 1.63 ± 0.19 | reduction of efficacy of I GABA enhancement versus wild type ([14]; β3R269 mutated to alanine versus wild type): approximately 50% | EC50 [15]: 20.2 ± 5.2 µM | Emax [15, 17]: 632 ± 88% | n H (Hill coefficient, I GABA enhancement) ([15]; α1β3γ2S, GABA EC3–7, mean ± SEM): 1.50 ± 0.29 | EC50 [16]: 143 ± 67.5 µM | Emax [16, 17]: 134 ± 32% | reduction of efficacy of IGABA enhancement versus wild type ([16]; α1β3N265Sγ2S versus α1β3γ2S): approximately fivefold reduced | reduction of potency of IGABA enhancement versus wild type ([16]; α1β3N265Sγ2S versus α1β3γ2S): sevenfold reduction | n H (Hill coefficient, I GABA enhancement) ([16]; α1β3N265Sγ2S, GABA EC3–7, mean ± SEM): 1.33 ± 0.39

Source: publication PMC4988470, “Identification of the putative binding pocket of valerenic acid on GABAA receptors using docking studies and site‐directed mutagenesis” (British Journal of Pharmacology, 2015)
